Laboratory results published in ChEMBL document CHEMBL3124838, “Discovery of 6-aryl-azabenzimidazoles that inhibit the TBK1/IKK-ε kinases” (Bioorg Med Chem Lett, 2014).

Tests used:
[1] = biological target: RAF proto-oncogene serine/threonine-protein kinase (Homo sapiens) (UniProt P04049); assay: Inhibition of human c-RAF assessed as residual activity at 1 uM relative to control
[2] = biological target: Cyclin-dependent kinase 2 (Homo sapiens, UniProt P24941); assay: Inhibition of CDK2 (unknown origin)
[3] = biological target: Receptor tyrosine-protein kinase erbB-4 (Homo sapiens) (UniProt Q15303); assay: Inhibition of human ERBB4 assessed as residual activity at 1 uM relative to control
Sequence of Receptor tyrosine-protein kinase erbB-4 (Homo sapiens) (Q15303 whole entry): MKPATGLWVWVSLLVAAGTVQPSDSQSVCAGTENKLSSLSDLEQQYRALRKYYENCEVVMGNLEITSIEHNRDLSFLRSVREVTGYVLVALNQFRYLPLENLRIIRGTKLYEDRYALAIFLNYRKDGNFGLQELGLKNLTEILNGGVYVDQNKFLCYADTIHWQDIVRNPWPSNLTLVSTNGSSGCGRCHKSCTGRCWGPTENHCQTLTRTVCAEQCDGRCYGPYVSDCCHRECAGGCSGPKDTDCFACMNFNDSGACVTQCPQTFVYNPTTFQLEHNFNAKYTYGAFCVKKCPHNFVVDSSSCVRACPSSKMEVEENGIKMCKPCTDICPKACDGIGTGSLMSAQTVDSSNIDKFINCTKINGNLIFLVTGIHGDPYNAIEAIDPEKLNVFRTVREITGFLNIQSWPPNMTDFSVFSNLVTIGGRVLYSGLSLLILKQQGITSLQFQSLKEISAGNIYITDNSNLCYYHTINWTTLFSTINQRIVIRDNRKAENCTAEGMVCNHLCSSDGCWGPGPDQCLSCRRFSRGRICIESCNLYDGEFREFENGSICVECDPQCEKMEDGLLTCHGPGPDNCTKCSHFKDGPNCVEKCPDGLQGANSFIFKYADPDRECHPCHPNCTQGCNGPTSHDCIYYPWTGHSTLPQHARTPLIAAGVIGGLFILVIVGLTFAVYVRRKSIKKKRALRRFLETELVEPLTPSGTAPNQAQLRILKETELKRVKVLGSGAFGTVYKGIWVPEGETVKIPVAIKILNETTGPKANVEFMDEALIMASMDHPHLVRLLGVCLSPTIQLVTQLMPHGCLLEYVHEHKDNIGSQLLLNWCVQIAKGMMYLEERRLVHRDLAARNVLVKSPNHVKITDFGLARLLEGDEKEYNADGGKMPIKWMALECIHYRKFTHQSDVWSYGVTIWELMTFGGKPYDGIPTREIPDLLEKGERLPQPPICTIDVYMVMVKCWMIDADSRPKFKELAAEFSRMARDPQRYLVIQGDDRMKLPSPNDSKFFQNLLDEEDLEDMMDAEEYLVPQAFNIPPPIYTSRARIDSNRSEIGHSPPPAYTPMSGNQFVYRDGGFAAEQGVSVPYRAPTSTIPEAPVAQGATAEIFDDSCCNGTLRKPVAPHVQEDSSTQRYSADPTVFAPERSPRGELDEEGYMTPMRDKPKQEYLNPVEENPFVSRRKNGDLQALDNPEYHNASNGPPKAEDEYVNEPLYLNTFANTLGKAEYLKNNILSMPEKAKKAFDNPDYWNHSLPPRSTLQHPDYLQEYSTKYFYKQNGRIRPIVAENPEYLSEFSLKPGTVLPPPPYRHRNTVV

[4] = biological target: T1, Tyrosine-protein kinase JAK3 (Homo sapiens) (UniProt P52333); assay: Inhibition of human JAK3 assessed as residual activity at 1 uM relative to control
T1 sequence (whole entry): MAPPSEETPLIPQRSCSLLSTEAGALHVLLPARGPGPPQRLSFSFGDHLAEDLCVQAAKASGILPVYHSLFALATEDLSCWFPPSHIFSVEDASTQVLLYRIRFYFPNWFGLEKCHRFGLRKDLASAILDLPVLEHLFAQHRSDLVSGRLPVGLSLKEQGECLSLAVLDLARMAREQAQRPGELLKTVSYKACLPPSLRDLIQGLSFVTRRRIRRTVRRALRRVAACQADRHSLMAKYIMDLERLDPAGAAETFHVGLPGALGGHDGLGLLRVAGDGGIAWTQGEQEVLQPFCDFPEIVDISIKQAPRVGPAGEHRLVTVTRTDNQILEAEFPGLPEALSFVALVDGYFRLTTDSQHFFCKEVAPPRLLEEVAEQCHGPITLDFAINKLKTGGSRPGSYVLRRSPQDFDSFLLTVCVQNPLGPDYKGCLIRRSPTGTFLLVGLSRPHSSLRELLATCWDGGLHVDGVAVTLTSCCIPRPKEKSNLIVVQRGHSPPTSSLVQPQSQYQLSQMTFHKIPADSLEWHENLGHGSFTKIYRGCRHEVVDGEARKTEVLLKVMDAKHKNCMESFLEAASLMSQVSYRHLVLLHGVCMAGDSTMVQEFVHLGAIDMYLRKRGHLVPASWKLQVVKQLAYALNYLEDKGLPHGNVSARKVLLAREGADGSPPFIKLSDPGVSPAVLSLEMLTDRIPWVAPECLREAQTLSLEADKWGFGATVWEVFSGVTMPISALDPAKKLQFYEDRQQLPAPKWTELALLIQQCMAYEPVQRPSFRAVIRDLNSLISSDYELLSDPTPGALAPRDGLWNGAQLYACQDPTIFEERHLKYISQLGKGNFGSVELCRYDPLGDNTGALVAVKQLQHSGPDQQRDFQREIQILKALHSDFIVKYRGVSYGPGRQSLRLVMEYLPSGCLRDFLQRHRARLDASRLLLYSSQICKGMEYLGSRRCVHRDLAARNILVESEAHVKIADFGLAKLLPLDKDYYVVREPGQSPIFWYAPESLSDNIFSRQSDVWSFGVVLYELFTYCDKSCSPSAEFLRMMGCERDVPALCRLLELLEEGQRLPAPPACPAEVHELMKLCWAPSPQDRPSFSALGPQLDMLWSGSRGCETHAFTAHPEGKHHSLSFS

[5] = biological target: SRSF protein kinase 1 (Homo sapiens) (UniProt Q96SB4); assay: Inhibition of human SRPK1 assessed as residual activity at 1 uM relative to control
Sequence of SRSF protein kinase 1 (Homo sapiens) (Q96SB4 whole entry): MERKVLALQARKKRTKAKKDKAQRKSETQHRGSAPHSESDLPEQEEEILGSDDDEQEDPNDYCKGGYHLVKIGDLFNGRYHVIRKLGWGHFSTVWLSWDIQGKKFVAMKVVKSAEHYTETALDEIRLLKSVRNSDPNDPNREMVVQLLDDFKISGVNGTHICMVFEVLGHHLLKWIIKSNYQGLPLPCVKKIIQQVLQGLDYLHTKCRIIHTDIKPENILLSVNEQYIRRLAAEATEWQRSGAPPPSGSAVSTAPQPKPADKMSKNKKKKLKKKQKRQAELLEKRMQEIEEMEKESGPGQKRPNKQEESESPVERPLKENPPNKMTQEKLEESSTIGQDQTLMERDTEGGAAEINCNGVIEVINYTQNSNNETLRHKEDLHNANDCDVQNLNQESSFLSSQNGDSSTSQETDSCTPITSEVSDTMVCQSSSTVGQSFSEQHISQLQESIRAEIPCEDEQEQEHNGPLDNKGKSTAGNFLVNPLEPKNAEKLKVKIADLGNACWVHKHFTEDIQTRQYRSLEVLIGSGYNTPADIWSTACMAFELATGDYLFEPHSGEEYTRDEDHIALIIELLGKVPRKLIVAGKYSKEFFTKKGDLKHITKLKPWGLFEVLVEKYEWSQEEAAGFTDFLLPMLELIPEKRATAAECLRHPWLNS

[6] = biological target: PI3-kinase p110-delta/p85-alpha (Homo sapiens) (UniProt P27986+O00329); assay: Inhibition of human PI3K p110delta/p85alpha assessed as residual activity at 1 uM relative to control; format: protein-complex assay
[7] = biological target: High affinity nerve growth factor receptor (Homo sapiens) (UniProt P04629); assay: Inhibition of human TRKA assessed as residual activity at 1 uM relative to control
Sequence of High affinity nerve growth factor receptor (Homo sapiens) (P04629 33-796 limits assumed): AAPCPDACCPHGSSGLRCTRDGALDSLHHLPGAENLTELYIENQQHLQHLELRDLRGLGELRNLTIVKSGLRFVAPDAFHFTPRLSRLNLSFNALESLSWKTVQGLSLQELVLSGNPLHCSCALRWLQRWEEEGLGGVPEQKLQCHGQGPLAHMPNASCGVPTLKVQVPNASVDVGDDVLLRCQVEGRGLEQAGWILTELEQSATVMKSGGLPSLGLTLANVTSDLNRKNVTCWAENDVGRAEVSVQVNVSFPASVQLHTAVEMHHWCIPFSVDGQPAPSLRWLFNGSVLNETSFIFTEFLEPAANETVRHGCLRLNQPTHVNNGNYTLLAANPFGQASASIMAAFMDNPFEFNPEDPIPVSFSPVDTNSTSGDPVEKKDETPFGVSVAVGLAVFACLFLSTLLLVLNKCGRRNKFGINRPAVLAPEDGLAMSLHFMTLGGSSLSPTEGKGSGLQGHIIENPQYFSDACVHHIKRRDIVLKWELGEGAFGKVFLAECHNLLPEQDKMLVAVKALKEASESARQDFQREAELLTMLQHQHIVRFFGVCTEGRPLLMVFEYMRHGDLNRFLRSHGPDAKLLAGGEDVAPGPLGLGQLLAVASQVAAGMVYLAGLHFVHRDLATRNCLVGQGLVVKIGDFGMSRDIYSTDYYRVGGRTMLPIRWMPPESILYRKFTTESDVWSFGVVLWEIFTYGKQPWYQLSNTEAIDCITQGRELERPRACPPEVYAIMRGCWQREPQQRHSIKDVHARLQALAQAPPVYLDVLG

[8] = biological target: T2, Dual specificity mitogen-activated protein kinase kinase 7 (Homo sapiens) (UniProt O14733); assay: Inhibition of human MKK7beta assessed as residual activity at 1 uM relative to control
T2 sequence (whole entry): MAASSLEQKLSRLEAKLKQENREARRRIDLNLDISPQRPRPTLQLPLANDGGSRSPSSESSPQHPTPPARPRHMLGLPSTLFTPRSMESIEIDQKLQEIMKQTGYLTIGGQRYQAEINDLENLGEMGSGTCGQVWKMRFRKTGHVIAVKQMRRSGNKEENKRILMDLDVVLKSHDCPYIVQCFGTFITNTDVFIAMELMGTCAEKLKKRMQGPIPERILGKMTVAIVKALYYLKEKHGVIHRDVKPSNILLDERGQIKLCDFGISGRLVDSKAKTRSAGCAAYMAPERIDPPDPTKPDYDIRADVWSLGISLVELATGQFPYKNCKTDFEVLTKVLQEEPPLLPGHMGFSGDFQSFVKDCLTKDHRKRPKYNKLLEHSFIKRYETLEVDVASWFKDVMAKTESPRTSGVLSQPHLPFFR

Sequence of RAF proto-oncogene serine/threonine-protein kinase (Homo sapiens) (P04049 whole entry): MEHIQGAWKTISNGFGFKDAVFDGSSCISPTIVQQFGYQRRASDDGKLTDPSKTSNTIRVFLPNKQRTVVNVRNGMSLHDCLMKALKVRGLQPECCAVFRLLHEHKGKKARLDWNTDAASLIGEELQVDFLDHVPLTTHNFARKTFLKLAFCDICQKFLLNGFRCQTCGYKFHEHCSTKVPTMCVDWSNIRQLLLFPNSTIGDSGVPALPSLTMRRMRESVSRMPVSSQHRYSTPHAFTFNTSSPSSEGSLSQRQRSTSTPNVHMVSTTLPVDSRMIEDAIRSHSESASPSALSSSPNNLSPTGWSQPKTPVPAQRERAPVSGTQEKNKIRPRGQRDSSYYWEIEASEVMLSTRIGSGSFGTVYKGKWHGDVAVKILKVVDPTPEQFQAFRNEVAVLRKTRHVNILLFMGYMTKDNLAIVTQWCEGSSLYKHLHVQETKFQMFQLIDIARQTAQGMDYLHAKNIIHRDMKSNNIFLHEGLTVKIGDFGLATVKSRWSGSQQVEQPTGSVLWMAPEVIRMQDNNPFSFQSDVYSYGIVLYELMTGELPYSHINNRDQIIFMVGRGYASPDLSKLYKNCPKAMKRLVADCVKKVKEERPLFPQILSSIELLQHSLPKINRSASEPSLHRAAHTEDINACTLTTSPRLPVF

Row | SMILES | Activity [1] [%] | IC50 [2] [µM] | Activity [3] [%] | Activity [4] [%] | Activity [5] [%] | Activity [6] [%] | Activity [7] [%] | Activity [8] [%]
1 | COc1ccc(-c2nc3cc(-c4csc(C(=O)NCCC(C)C)c4)cnc3[nH]2)cc1 | 92 | > 30 | 93 | 96 | 96 | 95 | 67 | 92
2 | COc1ccc(-c2nc3cc(-c4csc(C(=O)NCC(C)(C)C)c4)cnc3[nH]2)cc1 | 108 | > 30 | 91 | 94 | 94 | 91 | 77 | 88
3 | COc1ccc(-c2nc3cc(-c4csc(C(=O)NCC(C)C)c4)cnc3[nH]2)cc1 | 96 | > 30 | 98 | 91 | 91 | 94 | 59 | 94
